As a reminder, the Kd is the concentration at which binding is half-saturated. The low end stands for tighter binding, the high end for weaker binding.

One assay relates to Grb14. The following applies: 79 SH2 domains, 100 μg peptide in PBST, duplicate spots; not quantitative. The method, then: (§1) The microarray was conducted by the Protein Array and Analysis Core at the MD Anderson Cancer Center (University of Texas, USA) using standard protocols. […] Each SH2 domain was spotted in duplicate.
Another assay has as its system Grb10. The note with it: 79 SH2 domains, 100 μg peptide in PBST, duplicate spots; not quantitative. The method, then:
as §1

The subject of the next assay is Grb2. The note with it: 79 SH2 domains, 100 μg peptide in PBST, duplicate spots; not quantitative. On the procedure: as §1
For another assay, the system named is SH2D2A. The following applies: 79 SH2 domains, 100 μg peptide in PBST, duplicate spots; not quantitative.
The subject of a further assay is SH2 domain of Grb14. The note with it: SPR; ref Gunzburg et al., 2012; cited from earlier work.
A further assay deals with Grb2 / HER3. On the set-up: method as in Pero et al., 2002. The note with it: ref Pero et al., 2002; cited from earlier work.
The target in another assay is T1, Grb2-SH2 S90R (Homo sapiens, UniProt P62993, S90R).
T1 construct: Grb7-SH2 (residues 415-532) and Grb2-SH2 (residues 58-160) were incorporated into the pGex2T plasmid; made in house; host or cells: E. coli BL21(DE3)pLysS
The experiment in a line: SPR binding of G7-18NATE to immobilized GST-Grb2-SH2 S90R mutant. (In SPR one partner is held on a chip, and binding of the other changes the refractive index at the surface.)

Assay [1] concerns other SH2 domains in the microarray with leucine present at this position. The note with it: 79 SH2 domains, 100 μg peptide in PBST; SH2 domains other than Grb7 and SH2D2A with leucine at βD6.
Another assay relates to SH2 domain of Grb10. The note with it: SPR; ref Gunzburg et al., 2012; cited from earlier work.
Another assay has as its system Grb7-SH2 domain. On the set-up: method as in 3 sources, one per row (each row's own in cited_ref): ref Ambaye et al., 2011a; Watson et al., 2017 ||| ref Gunzburg et al., 2012 ||| ref Janes et al., 1997; Gunzburg et al., 2012. The note with it: ref Janes et al., 1997; Gunzburg et al., 2012; cited from earlier work. The source says:
Grb7 is a signaling adaptor protein that has been specifically targeted through th ...

The next assay concerns the target T2, Grb2-SH2 WT (Homo sapiens, UniProt P62993).
T2 construct: Grb7-SH2 (residues 415-532) and Grb2-SH2 (residues 58-160) were incorporated into the pGex2T plasmid; made in house; host or cells: E. coli BL21(DE3)pLysS
The experiment in a line: SPR binding of G7-18NATE to immobilized GST-Grb2-SH2 WT.

Assay [2] has as its target T3, Grb2-SH2 wild-type, GST fusion (residues 58-160) (UniProt P62993 58-160).
T3 construct: Grb2, SH2 domain, residues 58-160, in pGex2T; also called Grb2-SH2 WT; WT Grb2-SH2
Kind of assay: SPR; Biacore T100, CM5 chip; GST-SH2 fusion captured by amine-coupled anti-GST antibody, GST alone on the reference cell; G7-18NATE injected 60 s at 30 μL/min in 150 mM NaPO4, 150 mM NaCl, 1 mM DTT, pH 7.4; equilibrium responses fitted by a single-site binding model. The following applies: both partners purified.

Assay [3] deals with T4, Grb7-SH2 wild-type, GST fusion (residues 415-532) (UniProt Q14451 415-532).
T4 construct: also called Grb7-SH2 WT; WT Grb7-SH2
T4 sequence (Q14451 415-532): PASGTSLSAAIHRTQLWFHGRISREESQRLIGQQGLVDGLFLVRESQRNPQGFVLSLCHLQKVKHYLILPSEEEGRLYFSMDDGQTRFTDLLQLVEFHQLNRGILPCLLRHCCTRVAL
The description is as above. The following applies: both partners purified.

Assay [4] concerns the target T5, Grb7-SH2 R462S, GST fusion (residues 415-532) (UniProt Q14451 415-532, R462S).
T5 construct: Made by site-directed mutagenesis of the wild-type construct; primers in Supplementary Material; also called R462S Grb7-SH2; R462S mutant
The description is as above. The note with it: both partners purified.

In assay [5] the target is T5, Grb7-SH2 R462S, GST fusion (residues …). The assay is described as above. The following applies: both partners purified. The source holds these as a separate data set.
Setting [6] is: SPR, Biacore T100, single-site binding model, errors are standard error of the fits.
Setting [7] is: in words, injection of G7-18NATE over the chip surface.

“Also recorded” adds a separate entry of the source. Bridges are numbered along the chain shown (N, C = ends). Some results are limits rather than exact numbers.

T5 sequence (Q14451 415-532 R462S): as the sequence (Q14451 415-532) above, with R48S counted along it

“(cyclo-(CH2CO-WFEGYDNTFPC-RRMKWKKK(Biotin))-amide) (sidechain bridge or staple) [G7-18NATE-PB]”: the microarray fluorescence entry in the assay on Grb14, in the assay on Grb10 and in the assay with Grb2 was “no observation of fluorescence” in each case. The “microarray fluorescence / binding” value in the assay on SH2D2A is “Fluorescence was observed, although at much lower intensity”.

Turning to `C[C@@H](O)[C@@H]1NC(=O)[C@H](CC(N)=O)NC(=O)[C@H](CC(=O)O)NC(=O)[C@H](Cc2ccc(O)cc2)NC(=O)CNC(=O)[C@H](CCC(=O)O)NC(=O)[C@H](Cc2ccccc2)NC(=O)[C@H](Cc2c[nH]c3ccccc23)NC(=O)CSC[C@@H](C(N)=O)NC(=O)[C@@H]2CCCN2C(=O)[C@H](Cc2ccccc2)NC1=O` [G7-18NATE], the “binding to Grb14 SH2 domain” value with SH2 domain of Grb14 was “minimal binding”. Besides, in the assay with Grb2 / HER3, the “effect on Grb2/HER3 interaction” value is listed as “no effect”. Further, the results for the Rmax on Grb2-SH2 S90R (setting [6]) and on Grb2-SH2 WT (setting [6]) were 41.0 ± 3 RU and 14.2 ± 0.9 RU, respectively. Also, the SPR binding response result is listed as “low responses, though slightly higher than seen for Grb2-SH2 WT; also recorded: minimal binding” on Grb2-SH2 S90R (setting [7]) and “only a low binding response” on Grb2-SH2 WT (setting [7]). Also, the microarray binding entry in assay [1] was “no ability to be bound”. For the same molecule, the “binding to Grb10 SH2 domain” value in the assay on SH2 domain of Grb10 is on record as “minimal binding”. In addition, the “microarray fluorescence / binding” value in the assay on SH2D2A is on record as “detectable binding”. The “specificity for Grb7-SH2 over Grb2, Grb10 and Grb14 SH2 domains” value in the assay on Grb7-SH2 domain is “specific for the Grb7-SH2 domain over the closely related SH2 domains of Grb2, Grb10, and Grb14”.

B1: G7-18NATE (cyclo-(CH2CO-WFEGYDNTFPC)-amide) (peptide)
peptide: {CH2CO}-WFEGYDNTFPC-NH2
modifications: thioether N-11
notes: cyclic peptide developed via phage display against the Grb7-SH2 domain; Purity >95% by LC-MS; source: synthetic peptide (standard Fmoc-chemistry), bought: Purar Chemicals (Australia)
Consider B1, for which the Kd is above 125 µM in assay [2], 2.43 µM in [3], 7.98 µM in assay [4] and 7.97 µM in assay [5].

The values are drawn from article PMC5623053 (Frontiers in Molecular Biosciences, 2017).
